# Assay results taken from patent publication US12589090B2, “Compounds and methods for the treatment of degenerative disorders” (Aquilus Pharmaceuticals, Inc., priority 2019, dated 2026).
# Like-named read-outs stand apart in the source and are kept apart here.
# What was measured:
# [1] = Steady state oral/IV rat PK and compound penetration into spine and brain (Example 16); type: in vivo, Sprague-Dawley rats; conditions: for concentration at 5 h / AUC(0-inf) / AUC(0-t) / half-life / Cmax: male, Sprague-Dawley; for AUC(0-inf) / AUC(0-t) / half-life / Cmax: plasma
# Text: It is important if one is observing biochemical effects in the spine and brain that one is able to show clear evidence that the compound being tested is in fact able to penetrate to those areas of the body. The present example orally doses compound 118 once per day (SID) for three days to a series of rats. On the third after dosing the rats were then sacrificed after taking blood samples and the level of compound measured in the spine and brain.
# Procedure: Twelve (12) male Sprague-Dawley rats were used. Fasting was conducted at least 16 hours prior to dose administration. The animals were placed into 4 groups of 3 animals per group. There was one intravenous (IV) group and three oral gavage (PO) groups (10 mg/Kg, 20 mg/Kg & 40 mg/Kg). The oral (PO) formulation for Groups 2-4 were prepared on the day of dosing at a target concentration of 0.5 mg/mL in 0.5% Methylcellulose (400 cps) to produce a white, homogeneous suspension. The study design is outlined in Table 4:
# […] […] All blood samples were immediately placed on ice until processing. Whole blood samples were centrifuged at 2200×g for 10 minutes in a refrigerated centrifuge (5±3° C.) to isolate plasma. The plasma samples were transferred to individual polypropylene vials and immediately placed on dry ice before storage at nominally −20±5° C. The plasma samples sometime later were then thawed and extracted and analyzed by high pressure liquid chromatography (HPLC) coupled to Mass Spectrometery (MS). Pharmacokinetic parameters were estimated using WinNonlin® pharmacokinetic software (Version No. 5.2.1) using a non-compartmental approach consistent with the PO route of administration. The rodents were then sacrificed. On Day 3, five hours after dosing, animals were euthanized and whole brain and spine were removed, washed with saline and flash frozen until storage at nominally −70° C. before transfer for concentration analysis. The plasma, brain and spinal tissue samples were analyzed for test article concentration using a Research Grade LC-MS/MS Assay.
# [2] = Dissociation constant; type: physicochemical
# [3] = rat, iv, 1 mg/kg, DAY 1, 1 mg/kg IV
# [4] = rat, iv, 1 mg/kg, DAY 2, 1 mg/kg IV once per day
# [5] = rat, iv, 1 mg/kg, DAY 3, 1 mg/kg IV once per day
# [6] = rat, po, 10 mg/kg, DAY 1, 10 mg/kg PO
# [7] = rat, po, 10 mg/kg, DAY 2, 10 mg/kg PO once per day
# [8] = rat, po, 10 mg/kg, DAY 3, 10 mg/kg PO once per day
# [9] = rat, po, 20 mg/kg, DAY 1, 20 mg/kg PO
# [10] = rat, po, 20 mg/kg, DAY 2, 20 mg/kg PO once per day
# [11] = rat, po, 20 mg/kg, DAY 3, 20 mg/kg PO once per day
# [12] = rat, po, 40 mg/kg, DAY 1, 40 mg/kg PO
# [13] = rat, po, 40 mg/kg, DAY 2, 40 mg/kg PO once per day
# [14] = rat, po, 40 mg/kg, DAY 3, 40 mg/kg PO once per day
smiles,measurement,setting,value
"[2H]C([2H])([2H])c1ccc(C#Cc2ccc(S(=O)(=O)N[C@H](Cc3c[nH]c4ccccc34)C(=O)O)s2)cc1 [Compound 118, (R)-3-(1H-Indol-3-yl)-2-[5-(4-trideuteromethyl-phenylethynyl)-thiophene-2-sulfonylamino]-propionic acid-(D3, 98%)]",dose linearity in plasma,"[1]; 10, 20 and 40 mg/Kg oral doses, rat",exhibited dose linearity in plasma
same,concentration at 5 h,"[1]; brain, 10-40 mg/Kg daily oral dose, Day 3, rat, highest level at 40 mg/Kg, read-out: Compound level in the brain",30 to 84 ng/mL
same,concentration at 5 h,"[1]; rat, brain, Day 3, five hours after dosing, 10 mg/kg PO once per day, read-out: Brain",30.2 ng/mL
same,concentration at 5 h,"[1]; rat, brain, Day 3, five hours after dosing, 20 mg/kg PO once per day, read-out: Brain",42.1 ng/mL
same,concentration at 5 h,"[1]; rat, brain, Day 3, five hours after dosing, 40 mg/kg PO once per day, read-out: Brain",84.6 ng/mL
same,AUC(0-inf),[1]; [3],1820 ng·h/mL
same,AUC(0-t),[1]; [3],1810 ng·h/mL
same,half-life,[1]; [3],0.97 h
same,AUC(0-inf),[1]; [4],1170 ng·h/mL
same,AUC(0-t),[1]; [4],1170 ng·h/mL
same,half-life,[1]; [4],0.936 h
same,AUC(0-inf),[1]; [5],1720 ng·h/mL
same,AUC(0-t),[1]; [5],1650 ng·h/mL
same,half-life,[1]; [5],0.89 h
same,AUC(0-inf),[1]; [6],3880 ng·h/mL
same,AUC(0-t),[1]; [6],3770 ng·h/mL
same,Cmax,[1]; [6],1170 ng/mL
same,half-life,[1]; [6],1.29 h
same,AUC(0-inf),[1]; [7],4480 ng·h/mL
same,AUC(0-t),[1]; [7],4390 ng·h/mL
same,Cmax,[1]; [7],1340 ng/mL
same,half-life,[1]; [7],1.24 h
same,AUC(0-inf),[1]; [8],12600 ng·h/mL
same,AUC(0-t),[1]; [8],4010 ng·h/mL
same,Cmax,[1]; [8],1450 ng/mL
same,half-life,[1]; [8],1.59 h
same,AUC(0-inf),[1]; [9],6520 ng·h/mL
same,AUC(0-t),[1]; [9],6410 ng·h/mL
same,Cmax,[1]; [9],2140 ng/mL
same,half-life,[1]; [9],1.2 h
same,AUC(0-inf),[1]; [10],4730 ng·h/mL
same,AUC(0-t),[1]; [10],4650 ng·h/mL
same,Cmax,[1]; [10],2150 ng/mL
same,half-life,[1]; [10],1.28 h
same,AUC(0-inf),[1]; [11],10100 ng·h/mL
same,AUC(0-t),[1]; [11],8820 ng·h/mL
same,Cmax,[1]; [11],3850 ng/mL
same,half-life,[1]; [11],1.02 h
same,AUC(0-inf),[1]; [12],15800 ng·h/mL
same,AUC(0-t),[1]; [12],15600 ng·h/mL
same,Cmax,[1]; [12],5020 ng/mL
same,half-life,[1]; [12],1.01 h
same,AUC(0-inf),[1]; [13],12200 ng·h/mL
same,AUC(0-t),[1]; [13],12200 ng·h/mL
same,Cmax,[1]; [13],5570 ng/mL
same,half-life,[1]; [13],1.02 h
same,AUC(0-inf),[1]; [14],15800 ng·h/mL
same,AUC(0-t),[1]; [14],15600 ng·h/mL
same,Cmax,[1]; [14],5020 ng/mL
same,half-life,[1]; [14],1.01 h
same,concentration at 5 h,"[1]; rat, spine, Day 3, five hours after dosing, 10 mg/kg PO once per day, read-out: Spine",15.6 ng/mL
same,concentration at 5 h,"[1]; rat, spine, Day 3, five hours after dosing, 20 mg/kg PO once per day, read-out: Spine",18.3 ng/mL
same,concentration at 5 h,"[1]; rat, spine, Day 3, five hours after dosing, 40 mg/kg PO once per day, read-out: Spine",31 ng/mL
same,concentration at 5 h,"[1]; spine, 10-40 mg/Kg daily oral dose, Day 3, rat, highest level at 40 mg/Kg, read-out: Compound level in the spine",15 to 31 ng/mL
same,dissociation constant,[2],around 3.4
